Measured values reported in US20150150878A1, “Methods For Inhibiting Viruses By Targeting Cathepsin-L Cleavage Sites In The Viruses' Glycoproteins” (priority 2012, published 2015).

Key:
[1] = tested on: EBOV-GP pseudotyped virus; experiment: microbe, parasite or virus in culture; format: cell-based, Ebola virus; settings: Zaire ebolavirus, 72 h, read-out: inhibition of EBOV pseudotyped virus entry
[2] = tested on: SARS-CoV-S pseudotyped virus; experiment: microbe, parasite or virus in culture; format: cell-based; settings: Severe acute respiratory syndrome coronavirus, 72 h, read-out: inhibition of SARS-CoV pseudotyped virus entry
[3] = molecular target: T1, cathepsin L (Homo sapiens, UniProt P07711); format: biochemical; design: human cathepsin L purified from human liver (Sigma Aldrich); purchased Sigma Aldrich; host or cells: human liver (tissue-purified)
T1 sequence (P07711 114-333): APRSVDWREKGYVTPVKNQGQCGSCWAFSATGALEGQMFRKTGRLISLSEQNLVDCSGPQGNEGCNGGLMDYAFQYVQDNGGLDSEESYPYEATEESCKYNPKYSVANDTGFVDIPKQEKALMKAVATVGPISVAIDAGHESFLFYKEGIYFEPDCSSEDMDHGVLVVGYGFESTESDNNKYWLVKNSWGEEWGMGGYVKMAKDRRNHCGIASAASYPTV

[4] = molecular target: T1, cathepsin L; format: biochemical; design: human cathepsin L purified from human liver (Sigma Aldrich); purchased Sigma Aldrich; host or cells: human liver (tissue-purified); remark: listed apart in the source
[5] = molecular target: T1, cathepsin L; format: biochemical; design: human cathepsin L purified from human liver (Sigma Aldrich); purchased Sigma Aldrich; host or cells: human liver (tissue-purified); remark: listed apart in the source
[6] = molecular target: T1, cathepsin L; format: biochemical; design: human cathepsin L purified from human liver (Sigma Aldrich); purchased Sigma Aldrich; host or cells: human liver (tissue-purified); remark: listed apart in the source
[7] = molecular target: T1, cathepsin L; format: biochemical; design: human cathepsin L purified from human liver (Sigma Aldrich); purchased Sigma Aldrich; host or cells: human liver (tissue-purified); remark: listed apart in the source
[8] = tested on: 293FT cells

Compound | inhibition at 10 µM [1] [%] | inhibition at 10 µM [2] [%] | Inhibition of cleavage of SARS peptide by Cathepsin-L [3] [%] | percentage inhibition against SARS peptide [3] [%] | Inhibition of cleavage of Ebola peptide by Cathepsin-L [4] [%] | percentage inhibition against Ebola peptide [4] [%] | Inhibition of cleavage of Nipah peptide by Cathepsin-L [5] [%] | percentage inhibition against Nipah peptide [5] [%] | Inhibition of cleavage of Hendra peptide by Cathepsin-L [6] [%] | percentage inhibition against Hendra peptide [6] [%] | Inhibition of cleavage of NPY peptide by Cathepsin-L [7] [%] | percentage inhibition against human Pro-NPY peptide [7] [%] | cytotoxic effect on 293FT cells [8] | cytotoxicity ([8]; human)
N#Cc1ccc(NC(=O)Nc2ccc(Cl)cc2)cc1 [Compound 7910528, 1-(4-chlorophenyl)-3-(4-cyanophenyl)urea] | 23.3 | 30.3 | 56.5 | 56.5 | 33.4 | 35 | 57.8 | 57.8 | 12.1 | 12.1 | 6.5 | 6.5 |  | 
Cl.c1ccc(CNC2CCCc3c2[nH]c2ccc(-c4ccccc4)cc32)cc1 (centres unmarked) [Compound 5219666] |  |  | 94.6 | 96.8 | 43 | 75.7 | 90.6 | 87.5 | 54.6 | 65.2 | 30 | 44.4 |  | 
CN(C)c1ccc(C(O)(c2ccc(N(C)C)cc2)c2ccc(N(C)C)cc2)cc1 [Compound 5152606] |  |  | 82.15 |  | 31.8 |  | 121.65 |  | 108.40 |  | 70.2 |  |  | 
O=C(Nc1cccc(C(F)(F)F)c1)Nc1ccc(Cl)c(Cl)c1 [Compound 5182554, 1-(3,4-dichlorophenyl)-3-(3-(trifluoromethyl)phenyl)urea] | 60.5 | 49.3 | 78.1 | 72.6 | 31 | 77 | 44 | 56.5 | 49.4 | 50.9 | 7.4 | 14.8 | toxic | 20-100%
Nc1ccc2[nH]c3ccccc3c2c1 [Compound 5172420] |  |  | 42.29 |  | 6.1 |  | 55.68 |  | 8.20 |  | 4.1 |  |  | 
O=C(Nc1cccnc1)c1cc2cc(Br)ccc2oc1=O [Compound 7947992] |  |  | 37.7 |  | 20 |  | 61.4 |  | 31.1 |  | 18.6 |  |  | 
O=C(Nc1ccc(S(=O)(=O)N2CCOCC2)cc1)Nc1ccc(F)c(Cl)c1 [Compound 7798500] |  |  | 69.6 | 62.2 | −6.3 | 64.8 | 41.5 | 49.2 | 26.3 | 30.4 | 11.2 | 24.6 |  | 
Cc1c(Sc2nc3ccccc3[nH]2)c(=O)[nH]c2cc3c(cc12)OCO3 [Compound 7665576] |  |  | 60.7 |  | −3.8 |  | 63.7 |  | 37.9 |  | 2.0 |  |  | 
O=C(Nc1ccc(F)c(Cl)c1)Nc1nnc(C(F)(F)F)s1 [Compound 7940158] |  |  | 55.8 | 64.6 | −12.3 | 49.1 | 34 | 54.7 | 26.2 | 19 | 4 | 14.9 |  | 
Cc1ccc(-c2nc3ccccc3[nH]2)cc1NC(=O)c1ccc2c(c1)OCO2 [Compound 7793889] |  |  | 76.5 |  | −3.4 |  | 51.1 |  | −7.77 |  | 6.1 |  |  | 
N#CSc1ccc(NC(=O)CSc2nc3ccccc3[nH]2)cc1 [Compound 6572698] |  |  | 66.1 | 44.8 | 15 | 34 | 40.7 | 41.1 | 21.6 | 24.8 | 1 | 14.7 |  | 
Cc1cnn(CCCNC(=O)c2cc(-c3cccnc3)nc3ccc(Cl)cc23)c1 [Compound 7923236] |  |  | 60.2 | 66.2 | 14 | 34.8 | 55.1 | 80.3 | 32.6 | 59 | 5.2 | 10.1 |  | 
CNS(=O)(=O)c1ccc(NC(=O)Nc2ccc(F)c(Cl)c2)cc1 [Compound 7790059] |  |  | 49.3 |  | 1.8 |  | 44.1 |  | 12.4 |  | 6.4 |  |  | 
Cc1c(C#N)c2ccccc2n1CC(=O)NCc1ccc2c(c1)OCO2 [Compound 6874634] |  |  | 65.6 | 67.7 | 4.6 | 48 | 46 | 54.1 | 21.2 | 22.7 | 12.8 | 13.4 |  | 
O=C(Nc1nc(-c2ccccc2)cs1)c1cc(-n2cnnc2)ccc1Cl [Compound 7931205] |  |  | 36.8 | 38.1 | −0.7 | 20 | 66.6 | 74.4 | 34.8 | 38.6 | 19.5 | 24.9 |  | 
O=C(Nc1ccc2c(c1)OCO2)c1cc(-c2cccnc2)nc2ccc(Cl)cc12 [Compound 7924029] |  |  | 60 | 71.2 | 22 | 55 | 50.4 | 77.9 | 26.3 | 45.6 | 11 | 18.6 |  | 
Cc1cc(C(=O)Nc2cccnc2)sc1-c1ccccc1 [Compound 7948346] |  |  | 72.4 |  | 25.2 |  | 49.3 |  | 17.7 |  | 10.2 |  |  | 
COc1ccc(OC)c(NC(=O)Nc2ccc(C(F)(F)F)cc2)c1 [Compound 7808526] |  |  | 69.2 |  | 9.6 |  | 40.8 |  | −4.08 |  | 1.2 |  |  | 
